In US7183295B2, “PPAR-activating compound and pharmaceutical composition comprising the compound” (Kowa Co., Ltd., priority 2003, dated 2007):

Tests used:
Type in all cases: cell-based
[1] = target: T1, human PPARα (166–467aa) ligand binding domain (Homo sapiens, UniProt Q07869); test: PPAR transfection (Gal4-LBD luciferase reporter) assay, hPPARα; settings: transfected COS-7 cells, 16 hours, luciferase activity; read-out: hPPAR; EC50 α (agonist activity)
T1 construct: human PPARα (166–467aa); expressed in transfected cells; host or cells: COS-7
T1 sequence (Q07869 166-467): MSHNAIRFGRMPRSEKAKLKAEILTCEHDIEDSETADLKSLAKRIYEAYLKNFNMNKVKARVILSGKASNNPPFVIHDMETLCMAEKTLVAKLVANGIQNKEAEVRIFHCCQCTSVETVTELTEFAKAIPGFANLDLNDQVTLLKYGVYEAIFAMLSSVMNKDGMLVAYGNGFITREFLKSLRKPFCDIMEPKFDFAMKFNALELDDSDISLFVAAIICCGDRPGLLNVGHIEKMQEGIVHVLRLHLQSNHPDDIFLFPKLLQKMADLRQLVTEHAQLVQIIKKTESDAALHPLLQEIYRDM
Protocol: (§1) COS-7 cells, which is African green monkey kidney cell line, were used for all transfection assays. Cells were cultured in DMEM medium supplemented with 10% fetal bovine serum, glutamic acid, and an antibiotic under humidified 5% CO2 atmosphere.
(§2) Cells were transfected by lipofectamine reagent with a mixture containing expression plasmid, firefly luciferase reporter plasmid. And a β-galactosidase expression plasmid used as an internal control for transfection efficiency.
(§3) Transiently transfected cells were incubated with DMEM with 0.2% FCS with or without compound. And after 16 hours, luciferase activity and β-galactosidase activity of cell lysate were measured.
(§4) Each compound was dissolved in and diluted with dimethyl sulfoxide (DMSO), and the DMSO concentration of the DMEM medium (containing 0.2% serum) was adjusted to 0.1% upon treatment of cells.

[2] = target: T2, human PPARγ (182–505aa) ligand binding domain (Homo sapiens, UniProt P37231); test: PPAR transfection (Gal4-LBD luciferase reporter) assay, hPPARγ; settings: transfected COS-7 cells, 16 hours, luciferase activity; read-out: hPPAR; EC50 γ (agonist activity)
T2 construct: γ(182–505aa); expressed in transfected cells; host or cells: COS-7
T2 sequence (P37231 182-505): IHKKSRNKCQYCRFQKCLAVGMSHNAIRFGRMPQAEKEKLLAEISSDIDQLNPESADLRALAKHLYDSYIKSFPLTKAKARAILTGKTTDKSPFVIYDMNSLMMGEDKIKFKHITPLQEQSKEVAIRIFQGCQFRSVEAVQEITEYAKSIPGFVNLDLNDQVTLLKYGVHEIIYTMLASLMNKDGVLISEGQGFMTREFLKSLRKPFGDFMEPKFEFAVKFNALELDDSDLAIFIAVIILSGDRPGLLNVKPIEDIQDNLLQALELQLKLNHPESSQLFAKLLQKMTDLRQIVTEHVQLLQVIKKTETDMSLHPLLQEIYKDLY
Protocol: as §1, §2, §3, §4

[3] = target: T3, human PPARδ (137–441aa) ligand binding domain (Homo sapiens, UniProt Q03181); test: PPAR transfection (Gal4-LBD luciferase reporter) assay, hPPARδ; settings: transfected COS-7 cells, 16 hours, luciferase activity; read-out: hPPAR; EC50 δ (agonist activity)
T3 construct: δ (137–441aa); expressed in transfected cells; host or cells: COS-7
T3 sequence (Q03181 137-441): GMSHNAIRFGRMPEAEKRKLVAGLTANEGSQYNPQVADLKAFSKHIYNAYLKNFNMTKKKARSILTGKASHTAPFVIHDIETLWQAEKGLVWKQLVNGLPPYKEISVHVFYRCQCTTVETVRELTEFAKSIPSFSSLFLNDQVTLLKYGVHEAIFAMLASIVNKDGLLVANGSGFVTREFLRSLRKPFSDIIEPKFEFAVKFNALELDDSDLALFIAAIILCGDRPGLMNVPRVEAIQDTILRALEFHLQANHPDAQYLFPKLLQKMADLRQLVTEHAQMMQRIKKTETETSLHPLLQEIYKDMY
Protocol: as §1, §2, §3, §4

SMILES | EC50 [1] | EC50 [2] | EC50 [3]
CCC(Oc1cccc(CN(CCOc2ccc(F)cc2)c2nc3ccc(F)cc3o2)c1)C(=O)O (stereo not drawn) [Example 183] | 4 nM | 400 nM | 2400 nM
COc1ccc(OCCCN(Cc2cccc(OC(C)C(=O)O)c2)c2nc3cc(Cl)ccc3o2)cc1 (stereo not drawn) [Example 204] | 10 nM | 1600 nM | 1800 nM
CCC(Oc1cccc(CN(CCOc2ccccc2)c2nc3cc(F)ccc3o2)c1)C(=O)O (stereo not drawn) [Example 229] | 6 nM | > 10000 nM | 1800 nM
CCC(Oc1cccc(CN(CCOc2ccc(OS(C)(=O)=O)cc2)c2nc3ccccc3o2)c1)C(=O)O (stereo not drawn) [Example 231] | 13 nM | > 10000 nM | > 100000 nM

Now from value to compound:

EC50 [1] | EC50 [2] | EC50 [3] | SMILES
4 nM | > 10000 nM | 2000 nM | CC(Oc1cccc(CN(CCCOc2ccc(F)cc2)c2nc3cc4c(cc3o2)OCO4)c1)C(=O)O (stereo not drawn) [Example 169]
20 nM | 5500 nM | 10000 nM | CC(Oc1cccc(CN(CCOc2ccc(F)cc2)c2nc3ccccc3o2)c1)C(=O)O (stereo not drawn) [Example 186]
10 nM | 1400 nM | 1700 nM | COc1ccc2oc(N(CCCOc3ccc(Cl)cc3)Cc3cccc(OC(C)C(=O)O)c3)nc2c1 (stereo not drawn) [Example 206]
